Laboratory results as given in ChEMBL document CHEMBL3632534, “Design and synthesis of aloe-emodin derivatives as potent anti-tyrosinase, antibacterial and anti-inflammatory agents” (Bioorg Med Chem Lett, 2015).
Activity calls are given as the source filed them. No cut-off for these calls is given here.

Key:
[1] = molecular target: T1, Tyrosinase (Agaricus bisporus) (UniProt O42713); assay: Inhibition of diphenolase activity of mushroom tyrosinase using L-DOPA as substrate assessed as formation of the DOPA chrome at 100 uM preincubated for 10 mins followed by substrate addition measured for 1 min by spectrophotometric analysis relative to control
T1 sequence (whole entry): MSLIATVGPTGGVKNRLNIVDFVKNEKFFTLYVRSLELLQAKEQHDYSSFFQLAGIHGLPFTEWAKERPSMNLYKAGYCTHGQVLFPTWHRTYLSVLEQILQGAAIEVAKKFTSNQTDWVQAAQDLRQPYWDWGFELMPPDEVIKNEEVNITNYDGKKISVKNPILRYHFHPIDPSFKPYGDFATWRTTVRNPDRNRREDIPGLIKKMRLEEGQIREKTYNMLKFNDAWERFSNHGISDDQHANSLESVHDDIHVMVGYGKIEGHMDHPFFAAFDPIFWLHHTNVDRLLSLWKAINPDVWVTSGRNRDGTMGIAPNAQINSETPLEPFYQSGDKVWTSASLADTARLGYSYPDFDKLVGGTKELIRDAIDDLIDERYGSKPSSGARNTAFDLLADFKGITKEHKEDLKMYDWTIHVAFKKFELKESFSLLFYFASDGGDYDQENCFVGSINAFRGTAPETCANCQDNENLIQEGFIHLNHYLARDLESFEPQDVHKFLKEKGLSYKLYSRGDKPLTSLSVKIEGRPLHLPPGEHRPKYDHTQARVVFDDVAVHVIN

Tyrosinase = molecular target: T2, Tyrosinase (Agaricus bisporus, UniProt O42713)
T2 sequence (O42713 whole entry): T1 sequence (whole entry)
Description: Inhibition of diphenolase activity of mushroom tyrosinase using L-DOPA as substrate assessed as formation of the DOPA chrome preincubated for 10 mins followed by substrate addition measured for 1 min by spectrophotometric analysis

Mus musculus = species: Mus musculus; assay: animal or person; settings: Kunming, Ear, po, read-out: INH
Description: Antiinflammatory activity in Kunming mouse assessed as inhibition of croton oil-induced ear swelling at 0.105 mmol/kg, ig administered for 3 days followed by croton oil challenge at 1 hrs post last dose measured after 4 hrs relative to control

[2] = molecular target: T1, Tyrosinase (Agaricus bisporus); assay: Reversible inhibition of diphenolase activity of mushroom tyrosinase assessed as L-DOPA oxidation at 10 to 50 uM
[3] = molecular target: T1, Tyrosinase (Agaricus bisporus); assay: Competitive inhibition of diphenolase activity of mushroom tyrosinase assessed as L-DOPA oxidation at 15 to 45 uM by Lineweaver-Burk plot analysis
[4] = Drug degradation at 20 degC measured for 15 days; format: physicochemical; settings: read-out: Drug degradation
[5] = molecular target: T1, Tyrosinase (Agaricus bisporus); assay: […] inhibition of diphenolase activity of mushroom tyrosinase assessed as L-DOPA oxidation at 10 to 50 uM

| Structure (SMILES) | inhibition [1] | IC50 (Tyrosinase) [µM] | further results |
| --- | --- | --- | --- |
| CCOCOc1cccc2c1C(=O)c1c(OCOCC)cc(C=O)cc1C2=O | inactive | – | – |
| O=C1c2cccc(O)c2C(=O)c2c(O)cc(/C=N/O)cc21 | inactive | – | – |
| CCO/N=C/c1cc(O)c2c(c1)C(=O)c1cccc(O)c1C2=O | 18.3% | > 200 | – |
| C=CCOc1cccc2c1C(=O)c1c(OCC=C)cc(C=O)cc1C2=O | 55.4% | 92.4 | – |
| COc1cccc2c1C(=O)c1c(OC)cc(C=O)cc1C2=O | inactive | – | inhibition in vivo at 105 µmol/kg (Mus musculus): 42.6% |
| CC(=O)Oc1cccc2c1C(=O)c1c(OC(C)=O)cc(C(=O)O)cc1C2=O [DIACEREIN] | – | – | inhibition in vivo at 105 µmol/kg (Mus musculus): 39.1% |
| COc1cccc2c1C(=O)c1c(OC)cc(CO)cc1C2=O | 9.86% | > 200 | inhibition in vivo at 105 µmol/kg (Mus musculus): 35.2% |
| CO/N=C/c1cc(OC)c2c(c1)C(=O)c1cccc(OC)c1C2=O | inactive | – | – |
| CO/N=C/c1cc(O)c2c(c1)C(=O)c1cccc(O)c1C2=O | 12.9% | > 200 | – |
| O=Cc1cc(O)c2c(c1)C(=O)c1cccc(O)c1C2=O | 49.4% | 109 | inhibition in vivo at 105 µmol/kg (Mus musculus): 50.6% |
| OC[C@H]1O[C@@H](Oc2ccc(O)cc2)[C@H](O)[C@@H](O)[C@@H]1O [ARBUTIN] | – | – | degraded at 360 h [4]: 10% |
| CCOCOc1cccc2c1C(=O)c1c(OCOCC)cc(CO)cc1C2=O | 7.45% | > 200 | – |

Continued, in another order:

| inhibition [1] | IC50 (Tyrosinase) [µM] | Structure (SMILES) | further results |
| --- | --- | --- | --- |
| inactive | – | C=CCOc1cccc2c1C(=O)c1c(OCC=C)cc(/C=N/OC)cc1C2=O | – |
| inactive | – | CCO/N=C/c1cc(OC)c2c(c1)C(=O)c1cccc(OC)c1C2=O | – |
| 65.3% | 58.1 | CCOCOc1cccc2c1C(=O)c1c(OCOCC)cc(/C=N/NC(N)=S)cc1C2=O | – |
| 73.6% | 32.8 | CCCCOc1cccc2c1C(=O)c1c(OCCCC)cc(CO)cc1C2=O | inhibition [2]: Active; inhibition [3]: Active |
| 76.4% | 28 | COc1cccc2c1C(=O)c1c(OC)cc(/C=N/NC(N)=S)cc1C2=O | – |
| 58.6% | 91 | C=CCOc1cccc2c1C(=O)c1c(OCC=C)cc(CO)cc1C2=O | – |
| inactive | – | C=CCOc1cccc2c1C(=O)c1c(OCC=C)cc(/C=N/OCC)cc1C2=O | – |
| 57% | 83.2 | C=CCOc1cccc2c1C(=O)c1c(OCC=C)cc(/C=N/O)cc1C2=O | – |
| inactive | – | O=C1c2cccc(O)c2C(=O)c2c(O)cc(/C=N/OCc3ccccc3)cc21 | – |
| 78.6% | 24.5 | NC(=S)N/N=C/c1cc(O)c2c(c1)C(=O)c1cccc(O)c1C2=O | inhibition [5]: Active |
